Biological target: Prothrombin/thrombin (Homo sapiens) (UniProt P00734)
Experiment: Inhibition of amidolytic activity of thrombin

SMILES	Ki
N=C(NO)N1CCC(CNC(=O)[C@@H]2CC[C@H]3CN(C(=O)CC(c4ccccc4)c4ccccc4)CC(=O)N32)CC1 [(6S,8aS)-2-(3,3-Diphenyl-propionyl)-4-oxo-octahydro-pyrrolo[1,2-a]pyrazine-6-carboxylic acid [1-(N-hydroxycarbamimidoyl)-piperidin-4-ylmethyl]-amide]	25 nM
N=C(N)N1CCC(CNC(=O)[C@@H]2CC[C@H]3CN(S(=O)(=O)C(c4ccccc4)c4ccccc4)CC(=O)N32)CC1 [(6S,8aS)-2-(Diphenyl-methanesulfonyl)-4-oxo-octahydro-pyrrolo[1,2-a]pyrazine-6-carboxylic acid (1-carbamimidoyl-piperidin-4-ylmethyl)-amide]	9 nM
N=C(N)[C@H]1CC[C@H](CNC(=O)[C@@H]2CC[C@H]3CN(S(=O)(=O)C(c4ccccc4)c4ccccc4)CC(=O)N32)CC1 [(6S,8aS)-2-(Diphenyl-methanesulfonyl)-4-oxo-octahydro-pyrrolo[1,2-a]pyrazine-6-carboxylic acid (4-carbamimidoyl-cyclohexylmethyl)-amide]	2 nM
N=C(N)N1CCC(CNC(=O)[C@@H]2CC[C@H]3CN(C(=O)CCc4ccccc4)CC(=O)N32)CC1 [(6S,8aS)-4-Oxo-2-(3-phenyl-propionyl)-octahydro-pyrrolo[1,2-a]pyrazine-6-carboxylic acid (1-carbamimidoyl-piperidin-4-ylmethyl)-amide]	180 nM
N=C(NO)N1CCC(CNC(=O)[C@@H]2CC[C@H]3CN(S(=O)(=O)C(c4ccccc4)c4ccccc4)CC(=O)N32)CC1 [(6S,8aS)-2-(Diphenyl-methanesulfonyl)-4-oxo-octahydro-pyrrolo[1,2-a]pyrazine-6-carboxylic acid [1-(N-hydroxycarbamimidoyl)-piperidin-4-ylmethyl]-amide]	2 nM
N=C(N)N1CCC(CNC(=O)[C@@H]2CC[C@H]3CN(S(=O)(=O)CC(c4ccccc4)c4ccccc4)CC(=O)N32)CC1 [(6S,8aS)-2-(2,2-Diphenyl-ethanesulfonyl)-4-oxo-octahydro-pyrrolo[1,2-a]pyrazine-6-carboxylic acid (1-carbamimidoyl-piperidin-4-ylmethyl)-amide]	8 nM
N[C@H]1CC[C@H](CNC(=O)[C@@H]2CC[C@H]3CN(S(=O)(=O)C(c4ccccc4)c4ccccc4)CC(=O)N32)CC1 [(6S,8aS)-2-(Diphenyl-methanesulfonyl)-4-oxo-octahydro-pyrrolo[1,2-a]pyrazine-6-carboxylic acid (4-amino-cyclohexylmethyl)-amide]	5 nM
N=C(NO)N1CCC(CNC(=O)[C@@H]2CC[C@H]3CN(S(=O)(=O)CCc4ccccc4)CC(=O)N32)CC1 [(6S,8aS)-4-Oxo-2-(2-phenyl-ethanesulfonyl)-octahydro-pyrrolo[1,2-a]pyrazine-6-carboxylic acid [1-(N-hydroxycarbamimidoyl)-piperidin-4-ylmethyl]-amide]	14 nM
N=C(N)c1ccc2c(c1)CCC2NC(=O)[C@@H]1CC[C@H]2CN(S(=O)(=O)C(c3ccccc3)c3ccccc3)CC(=O)N21 (stereo partly drawn) [(6S,8aS)-2-(Diphenyl-methanesulfonyl)-4-oxo-octahydro-pyrrolo[1,2-a]pyrazine-6-carboxylic acid (5-carbamimidoyl-indan-1-yl)-amide]	75 nM
N=C(NO)N1CCC(CNC(=O)[C@@H]2CC[C@H]3CN(S(=O)(=O)CC(c4ccccc4)c4ccccc4)CC(=O)N32)CC1 [(6S,8aS)-2-(2,2-Diphenyl-ethanesulfonyl)-4-oxo-octahydro-pyrrolo[1,2-a]pyrazine-6-carboxylic acid [1-(N-hydroxycarbamimidoyl)-piperidin-4-ylmethyl]-amide]	2 nM

The remaining lines, values ahead:

Ki	SMILES
135 nM	Nc1ncc(CCNC(=O)[C@@H]2CC[C@H]3CN(S(=O)(=O)C(c4ccccc4)c4ccccc4)CC(=O)N32)[nH]1 [(6S,8aS)-2-(Diphenyl-methanesulfonyl)-4-oxo-octahydro-pyrrolo[1,2-a]pyrazine-6-carboxylic acid [2-(2-amino-1H-imidazol-4-yl)-ethyl]-amide]
1 nM	N=C(N)c1ccc(CNC(=O)[C@@H]2CC[C@H]3CN(S(=O)(=O)C(c4ccccc4)c4ccccc4)CC(=O)N32)cc1 [(6S,8aS)-2-(Diphenyl-methanesulfonyl)-4-oxo-octahydro-pyrrolo[1,2-a]pyrazine-6-carboxylic acid 4-carbamimidoyl-benzylamide]
10 nM	Cc1nc(N)ccc1CNC(=O)[C@@H]1CC[C@H]2CN(S(=O)(=O)C(c3ccccc3)c3ccccc3)CC(=O)N21 [(6S,8aS)-2-(Diphenyl-methanesulfonyl)-4-oxo-octahydro-pyrrolo[1,2-a]pyrazine-6-carboxylic acid (6-amino-2-methyl-pyridin-3-ylmethyl)-amide]
2 nM	Cc1cc(C(=N)N)ccc1CNC(=O)[C@@H]1CC[C@H]2CN(S(=O)(=O)C(c3ccccc3)c3ccccc3)CC(=O)N21 [(6S,8aS)-2-(Diphenyl-methanesulfonyl)-4-oxo-octahydro-pyrrolo[1,2-a]pyrazine-6-carboxylic acid 4-carbamimidoyl-2-methyl-benzylamide]
1 nM	N=C(N)c1ccc(CNC(=O)[C@@H]2CC[C@H]3CN(S(=O)(=O)CC(c4ccccc4)c4ccccc4)CC(=O)N32)cc1 [(6S,8aS)-2-(2,2-Diphenyl-ethanesulfonyl)-4-oxo-octahydro-pyrrolo[1,2-a]pyrazine-6-carboxylic acid 4-carbamimidoyl-benzylamide]
48 nM	Cc1nc(N)ccc1CNC(=O)[C@@H]1CC[C@H]2CN(S(=O)(=O)CC(c3ccccc3)c3ccccc3)CC(=O)N21 [(6S,8aS)-2-(2,2-Diphenyl-ethanesulfonyl)-4-oxo-octahydro-pyrrolo[1,2-a]pyrazine-6-carboxylic acid (6-amino-2-methyl-pyridin-3-ylmethyl)-amide]
35 nM	Nc1ccc(CNC(=O)[C@@H]2CC[C@H]3CN(S(=O)(=O)CC(c4ccccc4)c4ccccc4)CC(=O)N32)cn1 [(6S,8aS)-2-(2,2-Diphenyl-ethanesulfonyl)-4-oxo-octahydro-pyrrolo[1,2-a]pyrazine-6-carboxylic acid (6-amino-pyridin-3-ylmethyl)-amide]
75 nM	O=C(NCc1ccc2nc[nH]c2c1)[C@@H]1CC[C@H]2CN(S(=O)(=O)C(c3ccccc3)c3ccccc3)CC(=O)N21 [(6S,8aS)-2-(Diphenyl-methanesulfonyl)-4-oxo-octahydro-pyrrolo[1,2-a]pyrazine-6-carboxylic acid (1H-benzoimidazol-5-ylmethyl)-amide]
5 nM	N[C@H]1CC[C@H](CNC(=O)[C@@H]2CC[C@H]3CN(S(=O)(=O)CC(c4ccccc4)c4ccccc4)CC(=O)N32)CC1 [(6S,8aS)-2-(2,2-Diphenyl-ethanesulfonyl)-4-oxo-octahydro-pyrrolo[1,2-a]pyrazine-6-carboxylic acid (4-amino-cyclohexylmethyl)-amide]

— BindingDB's records for doi:10.1016/s0960-894x(02)00131-2 (Shire Biochem, 2002)
